Like-named read-outs stand apart in the source and are kept apart here.
What was measured:
mutant B = test: Antiviral spectrum, fold resistance towards mutant B; format: cell-based; conditions: FR=IC50(mutant strain)/IC50(HIV-1 strain LAI)
Experimental: (§1) Because of the increasing emergence of drug resistant HIV strains, the present compounds were tested for their potency against clinically isolated HIV strains harboring several mutations. These mutations are associated with resistance to protease inhibitors and result in viruses that show various degrees of phenotypic cross-resistance to the currently commercially available drugs such as for instance saquinavir, ritonavir, nelfinavir, indinavir and amprenavir. The viral strains R13025, R13027, R13028, R13029, R13034, R13080, T13127 and R13363 contained mutations as indicated below in Table 3.

mutant D = test: Antiviral spectrum, fold resistance towards mutant D; format: cell-based; conditions: FR=IC50(mutant strain)/IC50(HIV-1 strain LAI)
Experimental: as §1

mutant H = test: Antiviral spectrum, fold resistance towards mutant H; format: cell-based; conditions: FR=IC50(mutant strain)/IC50(HIV-1 strain LAI)
Experimental: as §1

mutant E = format: cell-based; conditions: FR=IC50(mutant strain)/IC50(HIV-1 strain LAI)
Experimental: (§2) HIV- or mock-infected MT4 cells were incubated for five days in the presence of various concentrations of the inhibitor. […] Cell viability is measured by measuring the concentration of MTT, a yellow, water soluble tetrazolium dye that is converted to a purple, water insoluble formazan in the mitochondria of living cells only. Upon solubilization of the resulting formazan crystals with isopropanol, the absorbance of the solution is monitored at 540 nm. The values correlate directly to the number of living cells remaining in the culture at the completion of the five day incubation. The inhibitory activity of the compound was monitored on the virus-infected cells and was expressed as IC50 and IC90. These values represent the amount of the compound required to protect 50% and 90%, respectively, of the cells from the cytopathogenic effect of the virus. […] The selectivity index (SI) (ratio CC50/IC50) is an indication of the selectivity of the anti-HIV activity of the inhibitor. Wherever results are reported as e.g. pIC50 or pCC50 values, the result is expressed as the negative logarithm of the result expressed as IC50 or CC50 respectively.
(§3) Because of the increasing emergence of drug resistant HIV strains, the present compounds were tested for their potency against clinically isolated HIV strains harboring several mutations. […] The viral strains R13025, R13027, R13028, R13029, R13034, R13080, T13127 and R13363 contained mutations as indicated below in Table 3.
(§4) As a measure of the broad spectrum activity of the present compounds, the fold resistance (FR), defined as FR=IC50(mutant strain)/IC50(HIV-1 strain LAI), was determined.

mutant A = format: cell-based; conditions: FR=IC50(mutant strain)/IC50(HIV-1 strain LAI)
Experimental: as §2, §3, §4

in vitro = conditions: human
Experimental: as §2, §4

mutant F = test: Antiviral spectrum, fold resistance towards mutant F; format: cell-based; conditions: FR=IC50(mutant strain)/IC50(HIV-1 strain LAI)
Experimental: as §1

HIV-1 strain LAI = test: Cellular anti-HIV assay, MT4 cells, MTT readout, wild type HIV-1 strain LAI; format: cell-based
Experimental: The compounds of the present invention were examined for anti-viral activity in a cellular assay. […] The cellular assay was performed according to the following procedure.

mutant C = test: Antiviral spectrum, fold resistance towards mutant C; format: cell-based; conditions: FR=IC50(mutant strain)/IC50(HIV-1 strain LAI)
Experimental: as §1

mutant G = test: Antiviral spectrum, fold resistance towards mutant G; format: cell-based; conditions: FR=IC50(mutant strain)/IC50(HIV-1 strain LAI)
Experimental: as §1

mock-infected MT4 cells = test: Toxicity on mock-infected MT4 cells (CC50)
Experimental: as §2, §4

[1] = Oral availability in the rat, serum concentration; format: in vivo
Experimental: The compounds are formulated as a 20 mg/ml solution or suspension in DMSO, PEG400 or cyclodextin 40% in water. For most experiments in the rat (male and female rats), three dosing groups are formed: 1/single intraperitoneal (IP) dose at 20 mg/kg using DMSO formulation; 2/single oral dose at 20 mg/kg using […] oral dose at 20 mg/kg using PEG400 formulation. Blood is sampled at regular time intervals after dosing and drug concentrations in the serum are determined using a LC-MS bioanalytical method. Serum concentrations are expressed in […]. Serum concentration at 30 minutes (30′) and at 3 hours (180′) can be determined as these values reflect the extent of absorption (30′) and the speed of elimination (180′). The rat serum concentration at 30 min and 180 min following IP administration of 20 mg/kg of compound 18 are 2012 ng/ml and 190 ng/ml respectively. The rat serum concentration at 30 min and 180 min following oral administration of 20 mg/kg as a DMSO formulation of compound 18 are 148 ng/ml and 44 ng/ml respectively; whereas in PEG400 said concentrations are respectively 475 ng/ml and 63 ng/ml.

[2] = pCC50 value as determined with mock transfected cells
[3] = Table 1, MT4 cells, five days, HIV-1 strain LAI
[4] = Table 4, wild type HIV-LAI strain

Compound	FR towards mutant B (mutant B)	FR towards mutant D (mutant D)	FR towards mutant E (mutant E)	FR value towards mutant A (mutant A)	FR towards mutant F (mutant F)	FR towards mutant C (mutant C)	FR towards mutant G (mutant G)	Tox (pCC50) (mock-infected MT4 cells; [2])	pIC50 (LAI) (HIV-1 strain LAI; [3])	WT (pIC50 against wild type HIV-LAI strain) (HIV-1 strain LAI; [4])	Tox (pCC50) (mock-infected MT4 cells)	other results
Cc1nc2ccc(S(=O)(=O)N(CC(C)C)C[C@@H](O)[C@H](Cc3ccccc3)NC(=O)O[C@H]3CO[C@H]4OCC[C@H]43)cc2n1Cc1ccccc1 [Compound 2, [(1S,2R)-2-hydroxy-3-[[[[2-methyl-1-(phenylmethyl)]benzimidazol-6-yl]sulfonyl]-(2-methylpropyl)amino]-1-(phenylmethyl)propyl]carbamic acid, [(3R,3aS,6aR)-hexahydrofuro[2,3-b]furan-3-yl]ester]	6.3	6.3	2.9	32	162	1.9						FR towards mutant H (mutant H): 89; CC50 at 5 days (in vitro): 63100 nM; IC50 (HIV-1 strain LAI; Human immunodeficiency virus 1, 120 h, Table 1, MT4 cells, five days, HIV-1 strain LAI, read-out: pIC50 (LAI) (converted)): 1 nM; IC50 (HIV-1 strain LAI; Human immunodeficiency virus 1, MT4, Table 4, wild type HIV-LAI strain, read-out: WT (pIC50 against wild type HIV-LAI strain) (converted)): 1 nM
CC(C)CN(CC(O)C(Cc1ccccc1)NC(=O)OC1COC2OCCC12)S(=O)(=O)c1ccc2ncn(CCc3ccccc3)c2c1 (centres unmarked) [Compound 5]	1.9	1.9	3.2		78	0.9	110	4.1	8.7	8.7		FR towards mutant H (mutant H): 49
COC(=O)Nc1nc2ccc(S(=O)(=O)N(CC(C)C)C[C@@H](O)[C@H](Cc3ccccc3)NC(=O)c3ccc([N+](=O)[O-])cc3C)cc2[nH]1 [Compound 11]	1.0	3.5	1.6	5.4	7.1	1.5	245	<4	8.0	8.0		
COC(=O)Nc1nc2ccc(S(=O)(=O)N(CC(C)C)C[C@@H](O)[C@H](Cc3ccccc3)NC(=O)COc3c(C)cc(C#N)cc3C)cc2[nH]1 [Compound 12]	2.1	7.9	9.5	5.5	49	9.5	89	<4	7.8	7.8		
CC(C)CN(C[C@@H](O)[C@H](Cc1ccccc1)NC(=O)O[C@H]1CCOC1)S(=O)(=O)c1ccc2ncn(CCc3ccccc3)c2c1 [Compound 15]	6.3	5.4	6.2		269	2.4	407	4.2	7.7	7.7		
CC(C)CN(CC(O)C(Cc1ccccc1)NC(=O)OC1COC2OCCC12)S(=O)(=O)c1ccc2ncn(C)c2c1 (centres unmarked) [Compound 18]												rat serum concentration at 30 min ([1]; IP administration of 20 mg/kg, 30 min): 2012 ng/mL; rat serum concentration at 180 min ([1]; IP administration of 20 mg/kg, 180 min): 190 ng/mL; rat serum concentration at 30 min ([1]; oral administration of 20 mg/kg as a DMSO formulation, 30 min): 148 ng/mL; rat serum concentration at 180 min ([1]; oral administration of 20 mg/kg as a DMSO formulation, 180 min): 44 ng/mL; rat serum concentration at 30 min ([1]; oral administration of 20 mg/kg in PEG400, 30 min): 475 ng/mL; rat serum concentration at 180 min ([1]; oral administration of 20 mg/kg in PEG400, 180 min): 63 ng/mL
COC(=O)Nc1nc2ccc(S(=O)(=O)N(CC(C)C)C[C@@H](O)[C@H](Cc3ccccc3)NC(=O)c3ccc(N)cc3C)cc2[nH]1 [Compound 22]	0.78	0.71	0.72	0.74	0.69	1.1	4.3	4.1	7.4	7.4		
CC(=O)Nc1nc2ccc(S(=O)(=O)N(CC(C)C)C[C@@H](O)[C@H](Cc3ccccc3)NC(=O)OC3COC4OCCC34)cc2[nH]1 (some centres unmarked) [Compound 38]	0.32	0.19	0.17	0.12	0.21	0.39	0.60		6.7	6.7	<4	
CC(C)CN(CC(O)C(Cc1ccccc1)NC(=O)OC1COC2OCCC12)S(=O)(=O)c1ccc2nc(NC(=O)OCCN(C)C)[nH]c2c1 (centres unmarked) [Compound 48]	1.9	0.35	0.32	0.37	0.35	0.38	0.85	<4	6.4	6.4		
CC(C)CN(CC(O)C(Cc1ccccc1)NC(=O)OC1COC2OCCC12)S(=O)(=O)c1ccc2nc(CO)[nH]c2c1 (centres unmarked) [Compound 56]	0.66	0.18	0.18	0.28	0.34	0.43	0.83		5.7	5.7	<4	
CC(C)CN(C[C@@H](O)[C@H](Cc1ccccc1)NC(=O)OCc1cncs1)S(=O)(=O)c1ccc2nc(N)[nH]c2c1 [Compound 57]	0.30	0.34	0.32	0.37	0.30	0.31	2.0		5.7	5.7	<4	
CC(C)CN(C[C@@H](O)[C@H](Cc1ccccc1)NC(=O)OC1COC2OCCC12)S(=O)(=O)c1ccc2nc(NC(=O)NCCN(C)C)[nH]c2c1 (some centres unmarked) [Compound 58]	1.0	0.32	0.37	1.0	1.1	1.0	1.1		5.6	5.6	<4	
[(1S,2R)-2-hydroxy-3-[[(2-methylbenzimidazol-5-yl)sulfonyl](2-methylpropyl)amino]-1-(phenylmethyl)propyl]-carbamic acid, [(3R,3aS,6aR)-hexahydrofuro[2,3-b]furan-3-yl]ester [Compound 24]	0.85	0.89	0.83	2.6	4.7	1.1	35	<4	7.3	7.3		
